Measurements from US20240391896A1 (Nantong Jutai Biotech Co., Ltd., priority 2021, published 2024).
Read-outs that look alike come from different tables or passages of the source.

Columns and labels:
collagen type III = experiment: Transformation of fibroblasts into myofibroblasts (anti-fibrosis test), collagen type III; type: cell-based; settings: Homo sapiens, Fibroblast; HFL1 cells, 20 ng/ml TGF-β1, 48 hours, supernatant; read-out: IC50 Human COL1 (collagen type III)
Protocol: (§1) (4) Transformation of Fibroblasts into Myofibroblasts (Anti-Fibrosis Test) • I. Main materials
(§2) HFL1 medium: F12K+10% FBS, adherent growth • II. Experimental Setup • 1. Normal group (medium only), model group (induced by 20 ng/ml TGF-β1), test sample group (20 ng/ml TGF-β1+ compound with different final concentration) • 2. 5 compounds, 3 concentration gradients, each gradient 2 repeat wells. • II. Experimental steps • 1. Digesting and counting, 5e^5 cells/well/2 ml, and seeded in 6-well plates. • 2. After adherent, adding TGF-β1 at a final concentration of 20 ng/ml and stimulating for 48 hours. Adding compounds with different final concentrations (0, 5 uM, 20 uM). • 3. Collecting the supernatant, and detecting the amount of col1 and col3 in the supernatant by kit. Lysing the cells with lysate solution, centrifuging, and collecting the supernatant. • 4. Detection of a-SMA and other genes by qPCR ii. Test Results • (1) BCL-9 affinity results are shown in Tables 1.1, 1.2, and 1.3, and the test methods were as described above.

HCT116 cells = experiment: CCK8 cell viability assay in HCT116 cells; type: cell-based; settings: Homo sapiens, HCT-116; Table 2, HCT116 cells, 24 hours
Protocol: • 1. HCT116 cell plating
Digesting, counting, and plating the cells in 96-well plates (flat bottom, transparent) with 10,000 cells/100 ul DMEM (10% FBS) per well; • 2. Observing the state of cells on the next day, and start dosing after cell attachment is intact; • 3. diluting 514 with DMEM (2% FBS) by gradient dilution with concentrations of 20 μM, 10 μM, 5 μM, 2.5 μM, 1.25 μM, 0.625 μM, 0.3125 μM, 0.15625 μM, 0 μM (equal volume of DMSO); • 4. Adding 100 μl of the above different concentrations of 514 to each well, and making two repeat wells for each concentration gradient; leaving three blank wells (only adding DMEM 2% FBS culture medium without cells). • 5. Culturing at 37° C. for 24 hours; • 6. Adding 10 μl CCK-8 enhanced solution to each well: due to the small amount added of CCK-8 in each well, it may cause errors resulting from the reagent staining on the wall of the well. It is recommended to gently tap the culture plate after adding the reagent to help mixing; • 7. Incubating in the incubator for 0.5-4 hours: the amount of Formazan formed is not the same for different cell types, in most cases, incubation for 1 hour is enough. If the color development is not enough, incubation can be continued to determine optimal conditions. • 8. Measuring the absorbance at 450 nm and 600 nm (excluding the interference of the background color of the reagent and the absorbance value of the well plate itself); • 9. Using OD450 nm-OD600 nm for the final absorbance, and calculating the inhibition rate:
[formula] • As: absorbance of experimental wells (medium containing cells, CCK-8, drug to be tested); • Ac: absorbance of control wells (medium containing cells, CCK-8, and no drug to be tested); • Ab: absorbance of blank wells (medium without cells and drug to be tested, CCK-8). (3) qPCR • 1. HCT116 cell plating

[1] = test system: Human COL1 (collagen type I); experiment: Transformation of fibroblasts into myofibroblasts (anti-fibrosis test), collagen type I; type: cell-based; settings: HFL1 cells, 20 ng/ml TGF-β1, 48 hours, supernatant
Protocol: as §1, §2

Human a-SMA = experiment: Transformation of fibroblasts into myofibroblasts (anti-fibrosis test), a-SMA; type: cell-based; settings: HFL1 cells, 20 ng/ml TGF-β1, 48 hours, qPCR
Protocol: as §1, §2

Human AXIN2 = experiment: qPCR of AXIN2 expression in HCT116 cells; type: cell-based; settings: HCT-116, Table 2, HCT116 cells, AXIN2 vs β-actin, 24 hours
Protocol: Cells were digesting, counting, and plating cells in 24-well plates (flat bottom, clear), with 3×10^5 cells/500 ul DMEM (10% FBS) per well. • 2. Observing the state of cells on the next day, and start dosing after cell attachment is intact
Diluting 514 with DMEM (2% FBS) by gradient dilution with concentrations of 20 μM, 10 μM, 5 μM, 2.5 μM, 1.25 μM, 0.625 μM, 0.3125 μM, 0.15625 μM, 0 μM (equal volume DMSO)
Adding 500 μl of the above different concentrations of 514 to each well, and setting a single well for each concentration gradient except three repeat wells for the 0 μM concentration (double wells for qPCR). • 3. Incubating at 37° C. for 24 hours • 4. Discarding the supernatant, washing once with PBS, and adding trizol at 500/well • 5. RNA extraction (step omitted) • 6. Reverse transcription (step omitted, according to the kit) • 7. qPCR (step omitted, following the kit steps)
• 8. calculation of inhibition rate

BCL9/β-catenin = target: T1, BCL9/β-catenin (Homo sapiens, UniProt P35222); experiment: FP (BCL-9 avidity) fluorescence polarization competition assay with beta-catenin and FAP-Bcl9 tracer; type: binding
T1 sequence (P35222 1-781): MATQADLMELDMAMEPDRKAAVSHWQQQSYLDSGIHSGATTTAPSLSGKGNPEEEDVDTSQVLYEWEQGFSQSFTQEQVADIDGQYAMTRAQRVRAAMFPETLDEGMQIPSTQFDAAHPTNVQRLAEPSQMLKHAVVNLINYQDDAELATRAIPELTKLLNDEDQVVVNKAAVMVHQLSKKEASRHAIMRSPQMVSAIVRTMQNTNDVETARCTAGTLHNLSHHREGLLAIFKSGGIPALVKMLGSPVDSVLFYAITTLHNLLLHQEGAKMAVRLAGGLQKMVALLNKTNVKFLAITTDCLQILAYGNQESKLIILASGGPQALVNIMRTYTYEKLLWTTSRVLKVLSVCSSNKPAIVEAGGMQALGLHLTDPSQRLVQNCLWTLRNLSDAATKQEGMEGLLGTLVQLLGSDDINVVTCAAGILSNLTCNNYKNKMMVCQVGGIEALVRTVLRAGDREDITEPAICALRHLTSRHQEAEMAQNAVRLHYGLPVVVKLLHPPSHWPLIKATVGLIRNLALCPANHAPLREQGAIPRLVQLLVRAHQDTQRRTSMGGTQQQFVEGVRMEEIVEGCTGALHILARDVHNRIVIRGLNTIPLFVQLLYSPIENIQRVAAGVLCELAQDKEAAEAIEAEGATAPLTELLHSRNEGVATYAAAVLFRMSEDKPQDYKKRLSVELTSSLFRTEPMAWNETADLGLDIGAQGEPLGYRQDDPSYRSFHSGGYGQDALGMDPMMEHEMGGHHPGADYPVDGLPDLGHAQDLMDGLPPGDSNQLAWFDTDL
Protocol: Incubating for 2 hours on a horizontal shaker. Then adding 2 nM FAP-Bcl9 tracer to each well, and after incubation for 2H on a horizontal shaker, measuring the […].

[2] = Table 1.2, compounds 7-16, read-out: BCL-9 avidity FP IC50
[3] = Table 2, FP (BCL-9 affinity), read-out: FP

| Structure (SMILES) | IC50 (collagen type III) | IC50 (HCT116 cells) | IC50 [1] | IC50 (Human a-SMA) | IC50 (Human AXIN2) | IC50 (BCL9/β-catenin; [2]) | IC50 (BCL9/β-catenin; [3]) |
| --- | --- | --- | --- | --- | --- | --- | --- |
| CC(C)(Oc1cccc(N2CCC[C@@H](NC(=O)N(Cc3ccc(-c4cn[nH]c4)cc3)C3CC3)C2)c1)C(=O)NCCCN [Compound 19, N-(3-aminopropyl)-2-{3-[(3R)-3-{[cyclopropyl({[4-(1H-pyrazol-4-yl)phenyl]methyl})carbamoyl]amino}piperidin-1-yl]phenoxy}-2-methylpropanamide] | 5 to 20 µM | 3.26 µM | 5.9 µM | 5 to 20 µM | 6.11 µM | – | – |
| CC(C)(Oc1cccc(N2CCC[C@@H](NC(=O)N(Cc3ccc(-c4cn[nH]c4)cc3)C3CC3)C2)c1)C(=O)N1CCNCC1 [Compound 17, 1-cyclopropyl-3-[(3R)-1-(3-{[2-methyl-1-oxo-1-(piperazin-1-yl)propan-2-yl]oxy}phenyl)piperidin-3-yl]-1-{[4-(1H-pyrazol-4-yl)phenyl]methyl}urea] | 20 to 30 µM | 1.84 µM | 10 to 20 µM | 5 to 10 µM | 4.67 µM | – | – |
| CC(C)(Oc1cccc(N2CCC[C@@H](C(=O)N(Cc3ccc(-c4cn[nH]c4)cc3)C3CC3)C2)c1Cl)C(=O)N1CCNCC1 [Compound 7, (3R)-1-(2-chloro-3-{[2-methyl-1-oxo-1-(piperazin-1-yl)propan-2-yl]oxy}phenyl)-N-cyclopropyl-N-{[4-(1H-pyrazol-4-yl)phenyl]methyl}piperidine-3-carboxamide] | 10 to 20 µM | 1.05 µM | 10 to 20 µM | 20 to 30 µM | 1.46 µM | 3.15 µM | 3.15 µM |
| CC(C)(Oc1ccc(Cl)c(N2CCC[C@@H](C(=O)N(Cc3ccc(C4=CCCCC4)cc3)C3CC3)C2)c1)C(=O)N1CCNCC1 [Compound 10, (3R)-1-(2-chloro-5-{[2-methyl-1-oxo-1-(piperazin-1-yl)propan-2-yl]oxy}phenyl)-N-{[4-(cyclohex-1-en-1-yl)phenyl]methyl}-N-cyclopropylpiperidine-3-carboxamide] | – | 10 to 20 µM | – | – | 10 to 20 µM | 2.7 µM | 2.7 µM |
| CC(C)(Oc1cccc(N2CCC[C@@H](C(=O)N(Cc3ccc(-c4cn[nH]c4)c(Cl)c3)C3CC3)C2)c1)C(=O)N1CCNCC1 [Compound 12, (3R)-N-{[3-chloro-4-(1H-pyrazol-4-yl)phenyl]methyl}-N-cyclopropyl-1-(3-{[2-methyl-1-oxo-1-(piperazin-1-yl)propan-2-yl]oxy}phenyl)piperidine-3-carboxamide] | – | 10 to 50 µM | – | – | 10 to 20 µM | > 10 µM | 10 to 20 µM |
